Assay results: US20040253261A1, “Biological compositions and methods for treatment of pancreatic cancer” (priority 2003, published 2004)
Where two headings read alike, the source gives them in different places.

How the values were obtained:
[1] = tested on: pancreatic cancer tumor cells; conditions: for Number of live animals remaining in the groups after 30 days of treatment: 30 mice per group
Method: (§1) The survival time of mice after tumor injection and treatment was studied.
(§2) The biological composition comprising 10^8 cells per ml of activated and conditioned yeast cells of the strain Saccharomyces cerevisiae Hansen strain IFFI 1413 was prepared by the methods described in Section 5.1 and subsections therein.
The animals were prepared in a similar manner as described in Section 6.1.
The mice injected with tumor cells were divided into 4 experimental groups of ten mice per group and one control group. The four experimental groups were triplicated (i.e., using a total of 120 mice in the experimental groups). In group 2AY, the mice received 0.3 ml of the biological composition once per day. In group 2NY, the mice received 0.3 ml of the untreated yeast cells once per day. In group 2VDS, the mice were injected intravenously with 3 mg of vindesine (VDS) per kg body weight once a week for four weeks. In group 2CK1, the mice received 0.3 ml of physiological saline once per day.
(§3) The mice received the biological compositions, untreated yeast cells, VDS or saline on the same day as the tumor cells were transplanted. The mice in group 2CK2 also started receiving saline on the same day as the other four groups. The biological compositions, untreated yeast cells and saline were administered orally by a feeding tube and the VDS by intravenous injection for 30 consecutive days. The mice were observed over 6 months from the day of tumor inoculation and survival was recorded. The weight of the mice as well as the weight of the tumor were determined by standard techniques.

[2] = tested on: pancreatic cancer tumor cells; assay: BALB/c mouse model of human pancreatic cancer, growth of tumors; conditions: tumor-bearing BALB/c mice, 30 consecutive days of treatment, sacrificed on 31st day from tumor inoculation
Method: as §2
The mice injected with tumor cells were divided into 4 experimental groups of ten mice per group and one control group. The four experimental groups were triplicated (i.e., using a total of 120 mice in the experimental groups).
The mice in group CK2 also started receiving saline on the same day as the other four groups. The biological compositions, untreated yeast cells and saline were administered orally by a feeding tube and the VDS by intravenous injection for 30 consecutive days.

[3] = tested on: mouse pancreatic cancer cell line MPC-83; assay: kun ming mouse model of pancreatic cancer (MPC-83), growth of tumors; conditions: MPC-83-bearing kun ming mice, 30 consecutive days of treatment, sacrificed on 31st day from tumor inoculation
Method: as §2
The mice injected with tumor cells were kept for 5 days and were divided into 4 experimental groups of ten mice per group and one control group. The four experimental groups were triplicated (i.e., using a total of 120 mice in the experimental groups).
The mice received the biological compositions, untreated yeast cells, MMC or saline on the same day as the tumor cells were transplanted. The mice in group CK2 also started receiving saline on the same day as the other four groups. The biological compositions, untreated yeast cells and saline were administered orally by a feeding tube and the MMC by intravenous injection for 30 consecutive days.

[4] = tested on: mouse pancreatic cancer cell line MPC-83; conditions: for Number of live animals remaining in the groups after 30 days of treatment: 30 mice per group
Method: as §1
The biological composition comprising 10^8 per ml of activated and conditioned yeast cells of the strain Saccharomyces cerevisiae Hansen strain IFFI 1413 was prepared by the methods described in Section 5.1 and subsections therein.
The animals were prepared in a similar manner as described in Section 8.1.
The mice injected with tumor cells were kept for 5 days and were divided into 4 experimental groups of ten mice per group and one control group. The four experimental groups were triplicated (i.e., using a total of 120 mice in the experimental groups). In group 2AY, the mice received 0.5 ml of the biological composition once per day. In group 2NY, the mice received 0.5 ml of the untreated yeast cells once per day. In group 2MMC, the mice were injected intravenously with 1.5×10^5 units of mitomycin C (MMC) per kg body weight per day. In group 2CK1, the mice received 0.5 ml of physiological saline once per day.
as §3, with “MMC” for “VDS”

[5] = 0 month after cessation of treatment
[6] = 1 month after cessation of treatment
[7] = 2 months after cessation of treatment
[8] = 3 months after cessation of treatment
[9] = 4 months after cessation of treatment
[10] = 5 months after cessation of treatment
[11] = 6 months after cessation of treatment
[12] = mice that survived, observed over 6 months from tumor inoculation

With `CC[C@]1(O)C[C@@H]2CN(CCc3c([nH]c4ccccc34)[C@@](C(=O)OC)(c3cc4c(cc3OC)N(C)[C@H]3[C@@](O)(C(N)=O)[C@H](O)[C@]5(CC)C=CCN6CC[C@]43[C@@H]65)C2)C1` [Group 2VDS, vindesine] the “Number of live animals remaining in the groups after 30 days of treatment” value (“Number of live animals remaining” for short) [1, 5] was 30, the “Number of live animals remaining” value [1, 6] was 30 and the “Number of live animals remaining” value [1, 7] was 27. For the same compound, the “Number of live animals remaining” value [1, 8] was 27, the “Number of live animals remaining” value [1, 9] was 11 and the “Number of live animals remaining” value [1, 10] was 0. For the same compound, the “Number of live animals remaining” value [1, 11] was 0, the “survival time of mice bearing pancreatic cancer cells” value ([1]; BALB/c mice, 30 days of treatment, from injection of tumor cells) was “all died after four months” and the “mean weight of mice and standard deviation” value [1, 12] was “all animals dead”. The “mean weight of tumor nodules and standard deviation” value [1, 12] was “all animals dead”.

With `CO[C@@]12[C@H](COC(N)=O)C3=C(C(=O)C(C)=C(N)C3=O)N1C[C@@H]1N[C@@H]12` [Group MMC, mitomycin C] the “mean weight of mice and standard deviation” value [2] was 18.9 ± 3.4 g, the “mean weight of tumor nodules and standard deviation” value [2] was 1.37 ± 0.7 mg and the “mean weight of mice and standard deviation” value [3] was 18.3 ± 1.5 g. For the same compound, the “mean weight of tumor nodules and standard deviation” value [3] was 2.8 ± 1.2 g, the “Number of live animals remaining” value [4, 5] was 30 and the “Number of live animals remaining” value [4, 6] was 27. For the same compound, the “Number of live animals remaining” value [4, 7] was 21, the “Number of live animals remaining” value [4, 8] was 7 and the “Number of live animals remaining” value [4, 9] was 0. The “Number of live animals remaining” value [4, 10] was 0, the “Number of live animals remaining” value [4, 11] was 0 and the “survival time of mice bearing pancreatic cancer cells” value ([4]; kun ming mice, 30 days of treatment, from injection of tumor cells) was “all died after four months”. The “mean weight of mice and standard deviation” value [4, 12] was “all animals dead” and the “mean weight of tumor nodules and standard deviation” value [4, 12] was “all animals dead”.
